Laboratory results as given in patent publication US5808139A (Ligand Pharmaceuticals Incorporated, priority 1994, dated 1998).

Columns and labels:
[1] = test system: endometrium of the uterus; experiment: Decidualization assay in pseudopregnant mice, oil-induced uterine weight gain; assay type: in vivo; conditions: 0.1 mg
Procedure: A successful pregnancy requires not only the effective collision and fusion of egg and spermatozoon, but also the provision of a receptive and supportive uterus. The preparation of the endometrium of the uterus for implantation (i.e. decidualization) starts well before the blastocyst arrives in the uterus.
Psuedopregnant mice (i.e. mated with vasectomized males) were used to establish the assay system. […] At 16 hours of Day 4, a small volume of sesame oil (10 μl) was introduced to the lumen of the right uterine horn to serve as a decidual stimulus. The left horn was left undisturbed to serve as an internal control. Autopsies were performed on Day 7 to assess uterine wet weight gains in the stimulated versus non-stimulated uterine horns.
Each of these compounds was intraluminally administered in an appropriate dosage on Day 4 along with the sesame oil administration.

[2] = test system: progesterone receptor (T47D cells); experiment: Antagonist assay in T47D (human breast cancer) cells (Tables 1 and 2); assay type: cell-based
[3] = test system: glucocorticoid, mineralocorticoid, androgen, estrogen, and retinoic acid receptors; orphan receptors; experiment: Cross-reactivity with other known intracellular receptor classes; assay type: cell-based
Procedure: Compound SO-9 was also tested with orphan receptors (which are receptors whose natural ligand is unknown).
The 3R and 3S diastereomeric acetates of cyclocymopol monomethyl ether were also individually tested for cross reactivity with the other known intracellular receptor classes. […] No antagonist activity was detected with either compound.

SMILES: CC#C[C@]1(O)CC[C@H]2[C@@H]3CCC4=CC(=O)CCC4=C3[C@@H](c3ccc(N(C)C)cc3)C[C@@]21C [RU-486, reference compound]
- Blocking of decidualization weight gain (in words) [1]: completely blocked this decidualization weight gain
- Net Uterine Weight Gain ([1]; intraluminal, autopsy Day 7, oil alone control 334.7 +/- 41.0): 9.53 ± 3.51 mg

SMILES: C=C1CC[C@@H](Br)C(C)(C)[C@@H]1Cc1cc(OC)c(Br)cc1O [SO-53, (3R)-cyclocymopol monomethyl ether]
- Efficacy (% maximal response relative to RU-486), T47D cells ([2]; antagonist activity, relative to RU-486): 85%
- IC50 ([2]; concentration required to reduce the maximal response by 50%, read-out: Potency (IC50), T47D cells): 385 nM
- Cross-reactivity with other intracellular receptors [3]: not to cross-react with any of the other receptors
